The record followed here is patent US6197751A, “Thymosin α1 promotes tissue repair, angiogenesis and cell migration” (The United States of America as represented by the …, priority 1998, dated 2001).

What all share (format): cell-based
Assay [1] relates to HT1080 cells (human fibrosarcoma cell line). Put plainly: Boyden chamber migration, HT1080 cells. As for the experimental part:
(§1) Human umbilical vein endothelial cells (HUVECs) were isolated from freshly delivered cords according to Jaffe et al. (J. Clin. Invest. 52: 2745, 1973) and grown on Nunclon dishes (Nunc, Denmark) in RPMI 1640 (Life Technologies, Gaithersburg, Md.) supplemented with 20% bovine calf serum (Hyclone Laboratories, Logan Utah), 100 U/ml penicillin/streptomycin (Life Technologies, Gaithersburg, Md.), 50 μg/ml gentamycin (Life Technologies, Gaithersburg, Md.), 2.7 μg/ml amphotericin B (fungizone)(Life Technologies, Gaithersburg, Md.), 5 U/ml sodium heparin (Fisher Scientific, Pittsburgh, Pa.) and 200 μg/ml endothelial cell growth supplement (ECGS) (Collaborative Research, Bedford, Mass.). Cells between passage 3 and 5 were used for all experiments. Human coronary artery endothelial cells (HCAECs) were grown on Nunclon dishes in the HUVEC media. Foreskin fibroblasts (Ffs) were grown in DMEM supplemented with 10% fetal bovine serum (Hyclone) on Falcon (Becton Dickinson, N.J.) dishes. HT1080 cells (human fibrosarcoma cell line) were grown in Falcon flasks in DMEM supplemented with 10% fetal bovine serum. Neutrophils were freshly isolated from buffy coats as previously reported (Kibbey et al., J. Cell Phys. 160:185, 1994). Human aortic smooth muscle cells (AOSMCs) were grown in smooth muscle cell media (Clonetics, San Diego, Calif.) on Nunclon dishes.
(§2) Several cell types were tested to determine if the migratory stimulation observed with Tα1 was specific. […] HUVEC migration assays were carried out in Boyden chambers using 12 ,m pore PVP free filters coated with either a 0.1 mg/ml or 0.05 mg/ml solution of collagen IV as previously reported (Malinda et al., FASEB J. 11:474, 1997). Each condition was assayed in triplicate wells at least three times unless indicated. HCAECs, AOSMCs, FFs, HT1080 cells and neutrophils were cultured or isolated and assayed for migration as previously reported (Malinda et al., FASEB J. 11:474, 1997).

Assay [2] concerns Neutrophils. Put plainly: Boyden chamber migration, neutrophils. The settings on record: Neutrophils, positive control 10^-7 M. As for the experimental part: as §1, §2
Assay [3] relates to Monocytes. Put plainly: Boyden chamber migration, monocytes. The note with it: Monocytes, positive control 10^-7 M. Here is the method: [The procedure below names another cell line; the source lists this cell line under the same test.] as §2
Assay [4] deals with foreskin fibroblasts. Briefly: Boyden chamber migration, foreskin fibroblasts. The note with it: FF, positive control 10 ng/ml. As for the experimental part: as §1, §2
Assay [5] deals with human aortic smooth muscle cells. Put plainly: Boyden chamber migration, aortic smooth muscle cells. The note with it: AOSMC, positive control 10 ng/ml. Here is the method:
as §1, §2

For laminin [LN, reference compound], the “average number of cells that migrated ± SEM” value is 661.2 ± 37 in assay [1] (HT1080, positive control 1 ug/ml) and 1136 ± 70.3 in assay [1] (HT1080, positive control 5 ug/ml).

With FMLP [reference compound], the “average number of cells that migrated ± SEM” value in assay [2] was 1404.7 ± 58.2; in assay [3], 74 ± 2.1.

“basic fibroblast growth factor [bFGF, reference compound]”: in assay [4], the “average number of cells that migrated ± SEM” value came to 12.3 ± 0.3.

B1: PDGF-BB: platelet derived growth factor B form, positive control (protein, UniProt P01127 82-190, looked up)
Platelet-derived growth …: SLGSLTIAEPAMIAECKTRTEVFEISRRLIDRTNANFLVWPPCVEVQRCSGCCNNRNVQCRPTQVQLRPVQVRKIEIVRKKPIFKKATVTLEDHLACKCETVAAARPVT
As to B1, the “average number of cells that migrated ± SEM” value in assay [5] was 36 ± 4.5.
